Where a name gives a salt, the structure may show the parent alone.
Assays:
Test in all cases: Kinase selectivity panel
Format in all cases: biochemical
Pim2 kinase (h) = Pim2 kinase (h) (Homo sapiens (Human), UniProt Q9P1W9); details: duplicate, read-out: % inhibition of control values, Pim2 kinase (h)
Method: (§1) (a) Compound 1 was tested against a panel of 60 kinases in order to assess its selectivity. The assays were chosen taking into consideration the diversity of assay families.
(§2) Human recombinant kinases were incubated in the presence of specific peptide substrates plus ATP for different times (10, 15, 30, 60 or 90 minutes) at 22° C. Phosphorylated substrate was detected by LANCE or HTRF technology (CISBIO, MA, USA).
(§3) Compound 1 was tested at 10 μM in duplicate.
(§4) The results are expressed as a percent of inhibition of control specific activity obtained in the presence of the test compound 1 and are reported in the following Table 5.
(§5) (b) Compounds 7, 12, 21 and 24 were tested against the same panel of 60 kinases under the same conditions described above for compound 1.
(§6) The results are expressed as a percent of inhibition of control specific activity obtained in the presence of the test compounds and are reported in the following Table 6.

PKCgamma (h) = PKCgamma (h) (Homo sapiens (Human), UniProt P05129); details: duplicate, read-out: % inhibition of control values, PKCgamma (h)
Method: as §1, §2, §3, §4, §5, §6

CDK5/p35 (h) = CDK5/p35 (h) (Homo sapiens (Human), UniProt Q00535); details: duplicate, read-out: % inhibition of control values, CDK5/p35 (h)
Method: as §1, §2, §3, §4, §5, §6

Abl kinase (h) = Abl kinase (h) (Homo sapiens (Human), UniProt P00519); details: duplicate, read-out: % inhibition of control values, Abl kinase (h)
Method: as §1, §2, §3, §4, §5, §6

IGF1R kinase (h) = IGF1R kinase (h) (Homo sapiens (Human), UniProt P08069); details: duplicate, read-out: % inhibition of control values, IGF1R kinase (h)
Method: as §1, §2, §3, §4, §5, §6

FGFR4 kinase (h) = FGFR4 kinase (h) (Homo sapiens (Human), UniProt P22455); details: duplicate, read-out: % inhibition of control values, FGFR4 kinase (h)
Method: as §1, §2, §3, §4, §5, §6

EphA4 kinase (h) = EphA4 kinase (h) (Homo sapiens (Human), UniProt P54764); details: duplicate, read-out: % inhibition of control values, EphA4 kinase (h)
Method: as §1, §2, §3, §4, §5, §6

PKA (h) = PKA (h) (Homo sapiens (Human), UniProt P17612); details: duplicate, read-out: % inhibition of control values, PKA (h)
Method: as §1, §2, §3, §4, §5, §6

CaMK4 (h) = CaMK4 (h) (Homo sapiens (Human), UniProt Q16566); details: duplicate, read-out: % inhibition of control values, CaMK4 (h)
Method: as §1, §2, §3, §4, §5, §6

Pim1 kinase (h) = Pim1 kinase (h) (Homo sapiens (Human), UniProt P11309); details: duplicate, read-out: % inhibition of control values, Pim1 kinase (h)
Method: as §1, §2, §3, §4, §5, §6

Akt1/PKBalpha (h) = Akt1/PKBalpha (h) (Homo sapiens (Human), UniProt P31749); details: duplicate, read-out: % inhibition of control values, Akt1/PKBalpha (h)
Method: as §1, §2, §3, §4, §5, §6

PhKgamma 2 (h) = PhKgamma 2 (h) (Homo sapiens (Human), UniProt P15735); details: duplicate, read-out: % inhibition of control values, PhKgamma 2 (h)
Method: as §1, §2, §3, §4, §5, §6

JAK2 (h) = JAK2 (h) (Homo sapiens (Human), UniProt O60674); details: duplicate, read-out: % inhibition of control values, JAK2 (h)
Method: as §1, §2, §3, §4, §5, §6

MYT1 kinase (h) = MYT1 kinase (h) (Homo sapiens (Human), UniProt Q99640); details: duplicate, read-out: % inhibition of control values, MYT1 kinase (h)
Method: as §1, §2, §3, §4, §5, §6

AurA/Aur2 kinase (h) = AurA/Aur2 kinase (h) (Homo sapiens (Human), UniProt O14965); details: duplicate, read-out: % inhibition of control values, AurA/Aur2 kinase (h)
Method: as §1, §2, §3, §4, §5, §6

c-Met kinase (h) = c-Met kinase (h) (Homo sapiens (Human), UniProt P08581); details: duplicate, read-out: % inhibition of control values, c-Met kinase (h)
Method: as §1, §2, §3, §4, §5, §6

NEK7 (h) = NEK7 (h) (Homo sapiens (Human), UniProt Q8TDX7); details: duplicate, read-out: % inhibition of control values, NEK7 (h)
Method: as §1, §2, §3, §4, §5, §6

ERK2 (h) (P42mapk) = ERK2 (h) (P42mapk) (Homo sapiens (Human), UniProt P28482); details: duplicate, read-out: % inhibition of control values, ERK2 (h) (P42mapk)
Method: as §1, §2, §3, §4, §5, §6

IKKepsilon (h) (IKBKE) = IKKepsilon (h) (IKBKE) (Homo sapiens (Human), UniProt Q14164); details: duplicate, read-out: % inhibition of control values, IKKepsilon (h) (IKBKE)
Method: as §1, §2, §3, §4, §5, §6

DAPK1 (h) = DAPK1 (h) (Homo sapiens (Human), UniProt P53355); details: duplicate, read-out: % inhibition of control values, DAPK1 (h)
Method: as §1, §2, §3, §4, §5, §6

PAK1 (h) = PAK1 (h) (Homo sapiens (Human), UniProt Q13153); details: duplicate, read-out: % inhibition of control values, PAK1 (h)
Method: as §1, §2, §3, §4, §5, §6

MNK2 (h) = MNK2 (h) (Homo sapiens (Human), UniProt Q9HBH9); details: duplicate, read-out: % inhibition of control values, MNK2 (h)
Method: as §1, §2, §3, §4, §5, §6

p38delta kinase (h) = p38delta kinase (h) (Homo sapiens (Human), UniProt O15264); details: duplicate, read-out: % inhibition of control values, p38delta kinase (h)
Method: as §1, §2, §3, §4, §5, §6

MAPKAPK2 (h) = MAPKAPK2 (h) (Homo sapiens (Human), UniProt P49137); details: duplicate, read-out: % inhibition of control values, MAPKAPK2 (h)
Method: as §1, §2, §3, §4, §5, §6

Ret kinase (h) = Ret kinase (h) (Homo sapiens (Human), UniProt P07949); details: duplicate, read-out: % inhibition of control values, Ret kinase (h)
Method: as §1, §2, §3, §4, §5, §6

FGFR4 kinase (h), sequence (P22455 22-802): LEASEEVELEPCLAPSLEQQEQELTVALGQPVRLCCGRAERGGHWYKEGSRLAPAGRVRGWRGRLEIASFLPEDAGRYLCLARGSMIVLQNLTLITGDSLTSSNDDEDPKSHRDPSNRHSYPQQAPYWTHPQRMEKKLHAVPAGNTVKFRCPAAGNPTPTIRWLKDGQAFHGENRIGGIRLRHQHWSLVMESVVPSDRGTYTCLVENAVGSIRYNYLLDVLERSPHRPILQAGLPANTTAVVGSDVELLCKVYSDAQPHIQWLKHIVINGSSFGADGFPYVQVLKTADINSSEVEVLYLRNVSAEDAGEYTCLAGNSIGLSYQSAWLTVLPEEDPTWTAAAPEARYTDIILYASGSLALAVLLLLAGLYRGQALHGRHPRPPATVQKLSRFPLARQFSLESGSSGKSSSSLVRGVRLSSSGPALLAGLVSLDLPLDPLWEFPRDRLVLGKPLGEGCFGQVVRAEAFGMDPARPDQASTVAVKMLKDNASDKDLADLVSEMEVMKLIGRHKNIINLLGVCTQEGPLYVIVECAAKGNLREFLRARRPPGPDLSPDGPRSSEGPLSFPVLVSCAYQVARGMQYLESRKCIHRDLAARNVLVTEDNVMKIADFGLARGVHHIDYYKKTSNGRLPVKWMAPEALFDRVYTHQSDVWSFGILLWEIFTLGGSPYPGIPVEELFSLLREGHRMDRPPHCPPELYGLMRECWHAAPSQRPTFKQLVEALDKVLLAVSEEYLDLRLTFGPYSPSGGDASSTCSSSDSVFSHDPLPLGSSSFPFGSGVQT
PAK1 (h), sequence (Q13153 whole entry): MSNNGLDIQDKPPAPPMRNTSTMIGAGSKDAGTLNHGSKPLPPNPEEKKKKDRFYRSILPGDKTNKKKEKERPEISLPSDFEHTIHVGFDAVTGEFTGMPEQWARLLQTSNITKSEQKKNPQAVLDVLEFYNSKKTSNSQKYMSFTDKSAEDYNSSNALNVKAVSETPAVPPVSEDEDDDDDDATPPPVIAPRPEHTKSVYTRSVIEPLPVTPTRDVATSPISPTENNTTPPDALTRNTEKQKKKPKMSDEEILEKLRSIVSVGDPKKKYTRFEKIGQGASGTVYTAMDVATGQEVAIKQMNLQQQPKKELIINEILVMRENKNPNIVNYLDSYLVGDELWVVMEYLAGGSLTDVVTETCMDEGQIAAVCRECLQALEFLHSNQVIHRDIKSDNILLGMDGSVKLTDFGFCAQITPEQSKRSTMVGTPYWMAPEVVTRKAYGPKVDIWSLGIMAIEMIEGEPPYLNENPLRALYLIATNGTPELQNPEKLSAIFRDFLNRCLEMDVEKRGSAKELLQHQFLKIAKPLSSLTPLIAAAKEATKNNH
MYT1 kinase (h), sequence (Q99640 whole entry): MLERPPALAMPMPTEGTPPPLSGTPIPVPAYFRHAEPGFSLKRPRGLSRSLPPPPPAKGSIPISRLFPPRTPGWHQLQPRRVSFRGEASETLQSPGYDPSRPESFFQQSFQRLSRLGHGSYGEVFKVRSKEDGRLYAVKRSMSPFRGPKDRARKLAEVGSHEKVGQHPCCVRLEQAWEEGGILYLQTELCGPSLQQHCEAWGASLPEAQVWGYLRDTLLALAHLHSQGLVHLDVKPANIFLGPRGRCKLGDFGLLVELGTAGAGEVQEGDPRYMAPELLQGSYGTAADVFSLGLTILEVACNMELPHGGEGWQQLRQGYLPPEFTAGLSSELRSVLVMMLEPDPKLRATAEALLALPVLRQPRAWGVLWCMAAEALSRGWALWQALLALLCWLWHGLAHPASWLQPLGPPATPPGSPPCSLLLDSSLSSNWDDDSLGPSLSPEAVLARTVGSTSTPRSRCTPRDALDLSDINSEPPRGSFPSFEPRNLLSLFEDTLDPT
IGF1R kinase (h), sequence (P08069 31-1367): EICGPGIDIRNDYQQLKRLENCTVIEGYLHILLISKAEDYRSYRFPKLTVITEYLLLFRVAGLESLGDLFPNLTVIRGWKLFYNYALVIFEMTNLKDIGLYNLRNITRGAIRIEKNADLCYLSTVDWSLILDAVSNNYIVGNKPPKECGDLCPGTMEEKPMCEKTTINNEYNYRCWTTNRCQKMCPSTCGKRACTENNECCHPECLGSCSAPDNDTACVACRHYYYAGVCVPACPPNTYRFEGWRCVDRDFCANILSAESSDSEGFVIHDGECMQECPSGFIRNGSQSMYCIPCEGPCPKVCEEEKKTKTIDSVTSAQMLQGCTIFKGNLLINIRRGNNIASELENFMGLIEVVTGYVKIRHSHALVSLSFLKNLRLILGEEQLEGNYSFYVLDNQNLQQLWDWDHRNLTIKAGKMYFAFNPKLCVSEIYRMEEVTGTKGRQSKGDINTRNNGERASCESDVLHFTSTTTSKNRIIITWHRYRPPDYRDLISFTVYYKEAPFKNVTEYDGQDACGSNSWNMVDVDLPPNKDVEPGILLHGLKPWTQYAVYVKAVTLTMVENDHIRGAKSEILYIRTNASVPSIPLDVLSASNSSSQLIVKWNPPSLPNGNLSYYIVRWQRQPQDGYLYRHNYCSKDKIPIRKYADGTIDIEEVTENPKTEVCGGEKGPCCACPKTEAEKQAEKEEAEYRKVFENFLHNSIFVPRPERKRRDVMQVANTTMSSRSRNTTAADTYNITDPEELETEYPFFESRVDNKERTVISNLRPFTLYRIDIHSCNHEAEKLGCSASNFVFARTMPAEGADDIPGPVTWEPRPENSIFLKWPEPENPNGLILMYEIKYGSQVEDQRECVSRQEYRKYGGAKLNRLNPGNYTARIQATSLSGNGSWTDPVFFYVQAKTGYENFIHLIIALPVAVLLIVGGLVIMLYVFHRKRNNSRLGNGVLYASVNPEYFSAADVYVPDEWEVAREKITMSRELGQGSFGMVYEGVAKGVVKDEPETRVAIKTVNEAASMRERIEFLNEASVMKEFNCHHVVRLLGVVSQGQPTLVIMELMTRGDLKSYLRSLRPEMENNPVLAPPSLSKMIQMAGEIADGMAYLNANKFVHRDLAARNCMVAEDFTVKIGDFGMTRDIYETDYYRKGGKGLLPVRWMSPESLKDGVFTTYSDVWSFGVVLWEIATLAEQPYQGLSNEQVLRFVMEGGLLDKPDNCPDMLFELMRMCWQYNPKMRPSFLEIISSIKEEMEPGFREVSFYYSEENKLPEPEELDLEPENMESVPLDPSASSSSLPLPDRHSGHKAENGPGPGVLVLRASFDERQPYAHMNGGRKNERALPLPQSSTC
JAK2 (h), sequence (O60674 whole entry): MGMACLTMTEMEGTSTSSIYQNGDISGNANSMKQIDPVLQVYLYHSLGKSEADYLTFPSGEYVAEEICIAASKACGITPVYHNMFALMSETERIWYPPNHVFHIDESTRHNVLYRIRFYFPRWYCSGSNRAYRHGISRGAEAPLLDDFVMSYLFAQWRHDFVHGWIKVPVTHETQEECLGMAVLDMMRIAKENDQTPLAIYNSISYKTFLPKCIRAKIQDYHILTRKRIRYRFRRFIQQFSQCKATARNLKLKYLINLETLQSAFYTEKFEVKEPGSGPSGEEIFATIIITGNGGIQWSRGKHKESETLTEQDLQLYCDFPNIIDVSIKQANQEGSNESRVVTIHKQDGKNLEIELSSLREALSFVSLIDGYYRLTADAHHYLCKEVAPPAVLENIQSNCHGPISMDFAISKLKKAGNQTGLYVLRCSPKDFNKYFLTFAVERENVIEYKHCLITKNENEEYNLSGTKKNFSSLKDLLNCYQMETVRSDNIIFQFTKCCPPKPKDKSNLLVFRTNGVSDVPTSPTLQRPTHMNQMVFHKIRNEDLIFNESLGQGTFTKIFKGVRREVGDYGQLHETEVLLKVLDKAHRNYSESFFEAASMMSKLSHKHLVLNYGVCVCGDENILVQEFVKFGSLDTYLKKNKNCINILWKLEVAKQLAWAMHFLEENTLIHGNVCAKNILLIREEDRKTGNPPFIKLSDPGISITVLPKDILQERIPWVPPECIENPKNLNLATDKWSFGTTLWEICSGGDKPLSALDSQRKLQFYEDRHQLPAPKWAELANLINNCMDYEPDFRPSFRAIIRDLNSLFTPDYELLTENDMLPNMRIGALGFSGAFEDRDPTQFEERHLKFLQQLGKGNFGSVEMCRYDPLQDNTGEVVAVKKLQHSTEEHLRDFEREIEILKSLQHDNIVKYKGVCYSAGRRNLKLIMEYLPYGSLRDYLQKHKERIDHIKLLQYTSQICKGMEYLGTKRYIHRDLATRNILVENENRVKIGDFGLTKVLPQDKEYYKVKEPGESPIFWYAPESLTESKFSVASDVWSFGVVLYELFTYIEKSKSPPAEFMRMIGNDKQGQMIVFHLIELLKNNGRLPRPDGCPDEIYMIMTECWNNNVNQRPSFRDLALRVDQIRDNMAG

COc1ccncc1-c1ccc2[nH]nc(C(=O)NCC3CCN(Cc4ccc(C(=O)O)o4)CC3)c2c1 [Compound 21, 5-({4-[({[5-(4-Methoxypyridin-3-yl)-1H-indazol-3-yl]carbonyl}amino)methyl]piperidin-1-yl}methyl)furan-2-carboxylic acid formate]
inhibition at 10 µM (Pim2 kinase (h)): 5% | inhibition at 10 µM (PKCgamma (h)): 0% | inhibition at 10 µM (CDK5/p35 (h)): 98% | inhibition at 10 µM (Abl kinase (h)): 0% | inhibition at 10 µM (IGF1R kinase (h)): 0% | inhibition at 10 µM (FGFR4 kinase (h)): 0% | inhibition at 10 µM (EphA4 kinase (h)): 2% | inhibition at 10 µM (PKA (h)): 3% | inhibition at 10 µM (CaMK4 (h)): 13% | inhibition at 10 µM (Pim1 kinase (h)): 10% | inhibition at 10 µM (Akt1/PKBalpha (h)): 0% | inhibition at 10 µM (PhKgamma 2 (h)): 0% | inhibition at 10 µM (JAK2 (h)): 2% | inhibition at 10 µM (MYT1 kinase (h)): 0% | inhibition at 10 µM (AurA/Aur2 kinase (h)): 30% | inhibition at 10 µM (c-Met kinase (h)): 0% | inhibition at 10 µM (NEK7 (h)): 5% | inhibition at 10 µM (ERK2 (h) (P42mapk)): 89% | inhibition at 10 µM (IKKepsilon (h) (IKBKE)): 21% | inhibition at 10 µM (DAPK1 (h)): 5% | inhibition at 10 µM (PAK1 (h)): 4% | inhibition at 10 µM (MNK2 (h)): 6% | inhibition at 10 µM (p38delta kinase (h)): 35% | inhibition at 10 µM (MAPKAPK2 (h)): 0% | inhibition at 10 µM (Ret kinase (h)): 0%

COc1ccc2[nH]nc(C(=O)NCC3CCN(CCc4ccc(O)cc4)CC3)c2c1 [Compound 1, N-({1-[2-(4-hydroxyphenyl)ethyl]-piperidin-4-yl}methyl)-5-methoxy-1H-indazole-3-carboxamide]
inhibition at 10 µM (Pim2 kinase (h)): 4% | inhibition at 10 µM (PKCgamma (h)): 0% | inhibition at 10 µM (CDK5/p35 (h)): 30% | inhibition at 10 µM (Abl kinase (h)): 0% | inhibition at 10 µM (IGF1R kinase (h)): 5% | inhibition at 10 µM (FGFR4 kinase (h)): 2% | inhibition at 10 µM (EphA4 kinase (h)): 0% | inhibition at 10 µM (PKA (h)): 0% | inhibition at 10 µM (CaMK4 (h)): 14% | inhibition at 10 µM (Pim1 kinase (h)): 2% | inhibition at 10 µM (Akt1/PKBalpha (h)): 7% | inhibition at 10 µM (PhKgamma 2 (h)): 6% | inhibition at 10 µM (JAK2 (h)): 0% | inhibition at 10 µM (MYT1 kinase (h)): 1% | inhibition at 10 µM (AurA/Aur2 kinase (h)): 1% | inhibition at 10 µM (c-Met kinase (h)): 0% | inhibition at 10 µM (NEK7 (h)): 9% | inhibition at 10 µM (ERK2 (h) (P42mapk)): 33% | inhibition at 10 µM (IKKepsilon (h) (IKBKE)): 4% | inhibition at 10 µM (DAPK1 (h)): 10% | inhibition at 10 µM (PAK1 (h)): 4% | inhibition at 10 µM (MNK2 (h)): 1% | inhibition at 10 µM (p38delta kinase (h)): 12% | inhibition at 10 µM (MAPKAPK2 (h)): 0% | inhibition at 10 µM (Ret kinase (h)): 1%

COc1ccc2[nH]nc(C(=O)NCC3CCN(Cc4ccc(C(=O)O)o4)CC3)c2c1 [Compound 24, 5-{[4-({[(5-Methoxy-1H-indazol-3-yl)carbonyl]amino}methyl)piperidin-1-yl]methyl}furan-2-carboxylic acid]
inhibition at 10 µM (Pim2 kinase (h)): 3% | inhibition at 10 µM (PKCgamma (h)): 0% | inhibition at 10 µM (CDK5/p35 (h)): 16% | inhibition at 10 µM (Abl kinase (h)): 0% | inhibition at 10 µM (IGF1R kinase (h)): 0% | inhibition at 10 µM (FGFR4 kinase (h)): 4% | inhibition at 10 µM (EphA4 kinase (h)): 0% | inhibition at 10 µM (PKA (h)): 0% | inhibition at 10 µM (CaMK4 (h)): 11% | inhibition at 10 µM (Pim1 kinase (h)): 2% | inhibition at 10 µM (Akt1/PKBalpha (h)): 0% | inhibition at 10 µM (PhKgamma 2 (h)): 0% | inhibition at 10 µM (JAK2 (h)): 0% | inhibition at 10 µM (MYT1 kinase (h)): 0% | inhibition at 10 µM (AurA/Aur2 kinase (h)): 4% | inhibition at 10 µM (c-Met kinase (h)): 2% | inhibition at 10 µM (NEK7 (h)): 3% | inhibition at 10 µM (ERK2 (h) (P42mapk)): 35% | inhibition at 10 µM (IKKepsilon (h) (IKBKE)): 0% | inhibition at 10 µM (DAPK1 (h)): 15% | inhibition at 10 µM (PAK1 (h)): 1% | inhibition at 10 µM (MNK2 (h)): 0% | inhibition at 10 µM (p38delta kinase (h)): 4% | inhibition at 10 µM (MAPKAPK2 (h)): 0% | inhibition at 10 µM (Ret kinase (h)): 0%

— patent US9163013B2, “Use of 1H-indazole-3-carboxamide compounds as glycogen synthase kinase 3 beta inhibitors” (AZIENDE CHIMICHE RIUNITE ANGELINI FRANCESCO A.C.R.A.F. …, priority 2012, dated 2015)
